Results published in patent US8710233B2 (Gruenenthal GmbH, priority 2005, dated 2014).
Read-outs that look alike come from different tables or passages of the source.

Tests used:
vanilloid receptor (VR1) = biological target: T1, vanilloid receptor (VR1) (Homo sapiens, UniProt Q8NER1); experiment: FLIPR Ca2+ influx assay on CHO K1 cells transfected with the VR1 gene (pharmacological method II); type: cell-based
T1 construct: expressed in transfected cells; host or cells: CHO K1 cells (ECACC), stably transfected

[1] = biological target: T2, vanilloid receptor 1 (VR1/TRPV1) of the rat species (Rattus norvegicus, UniProt O35433); experiment: FLIPR Ca2+ influx assay on rat dorsal root ganglia cells (pharmacological method I); type: cell-based
T2 construct: The spinal column is removed from decapitated rats; from tissue; host or cells: primary cells dissociated from rat dorsal root ganglia
In short: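 Primary rat dorsal root ganglion cells loaded with 2 μM Fluo-4, Ca2+ influx read on FLIPR as peak fluorescence. Triplicates, at least 3 independent experiments.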

VR1/TRPV1 receptor = VR1/TRPV1 receptor (Homo sapiens, UniProt Q8NER1); experiment: IC50 (human) after pH stimulus; type: cell-based
[2] = test system: capsaicin induced hypothermie; experiment: Hypothermie assay in the mouse (capsaicin induced hypothermie); type: in vivo; settings: as printed in this column, read-out: inhibition hypothermie (n = 5)
[3] = test system: formaldehyde induced nociceptive behaviour; experiment: Formaldehyde test in mice, second (late) phase; type: in vivo, mouse; settings: mouse, read-out: inhibition formaldehyde test (n = 10)
[4] = test system: cold allodynia after chronic constriction injury; experiment: Neuropathic pain in mice, Bennet model (chronic constriction injury, cold allodynia); type: in vivo; settings: 0.0001 mg/kg body weight po; mouse
Excerpt: VI. Neuropathic Pain in Mice
The efficacy of compounds of general formula I in the treatment of neuropathic pain is investigated by using the Bennet modell (chronic constriction injury; Bennett and Xie, 1988, Pain 33: 87-107.
NMRI mice (weight 16 to 18 g) under ketavet-rompun anaesthesia are supplied with three loose ligatures of the right nervus ischiaticus. The animals develop an oversensitivity to cold at the position of the pad that is innervated by the injured nerve which—after a recovery period of one week—is quantified over a period of three weeks by using a metal plate that is cooled to 4° C. (cold allodynia). The animals are observed for a period of 2 minutes on this plate and the number of brisk withdrawal reactions of the injured nerve is counted. […] The group size is n=10, the stastical significance of efficacy against allodynia (*=p<0.05) is determined by analysis of variance with repeated measurements and post hoc analysis with Bonferroni adjustment.

[5] = Table 2, displacement of capsaicin (100 nM), Cheng-Prusoff, read-out: Ki (human)
[6] = Table 2, displacement of capsaicin (100 nM), Cheng-Prusoff, read-out: Ki (rat)
[7] = table 4, capsaicin, read-out: Ki (human) Cap.
[8] = table 4, capsaicin, read-out: Ki (rat) Cap.

Sequence of VR1/TRPV1 receptor (Q8NER1 whole entry): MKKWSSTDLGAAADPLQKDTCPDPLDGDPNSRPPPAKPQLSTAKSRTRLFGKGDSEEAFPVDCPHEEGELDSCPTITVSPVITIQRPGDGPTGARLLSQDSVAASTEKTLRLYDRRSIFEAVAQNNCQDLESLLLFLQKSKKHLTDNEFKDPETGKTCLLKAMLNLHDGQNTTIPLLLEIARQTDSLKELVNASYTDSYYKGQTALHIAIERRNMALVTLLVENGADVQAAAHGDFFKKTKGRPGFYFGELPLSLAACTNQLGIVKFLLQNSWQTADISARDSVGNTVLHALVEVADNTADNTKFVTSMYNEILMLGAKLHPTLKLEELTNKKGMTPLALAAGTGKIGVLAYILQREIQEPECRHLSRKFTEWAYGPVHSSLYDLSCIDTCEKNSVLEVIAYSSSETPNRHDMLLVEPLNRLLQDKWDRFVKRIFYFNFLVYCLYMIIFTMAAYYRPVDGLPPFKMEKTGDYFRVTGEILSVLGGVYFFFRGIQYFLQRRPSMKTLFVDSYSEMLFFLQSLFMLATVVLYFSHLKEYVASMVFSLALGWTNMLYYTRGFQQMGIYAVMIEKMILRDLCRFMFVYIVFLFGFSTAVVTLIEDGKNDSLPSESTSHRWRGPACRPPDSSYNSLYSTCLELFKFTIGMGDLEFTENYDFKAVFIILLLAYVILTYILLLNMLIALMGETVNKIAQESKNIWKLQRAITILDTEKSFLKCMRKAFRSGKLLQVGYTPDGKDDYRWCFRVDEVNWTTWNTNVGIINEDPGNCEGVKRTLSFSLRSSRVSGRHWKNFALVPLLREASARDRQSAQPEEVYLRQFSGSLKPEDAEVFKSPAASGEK
T1 sequence (Q8NER1 whole entry): as above
T2 sequence (O35433 whole entry): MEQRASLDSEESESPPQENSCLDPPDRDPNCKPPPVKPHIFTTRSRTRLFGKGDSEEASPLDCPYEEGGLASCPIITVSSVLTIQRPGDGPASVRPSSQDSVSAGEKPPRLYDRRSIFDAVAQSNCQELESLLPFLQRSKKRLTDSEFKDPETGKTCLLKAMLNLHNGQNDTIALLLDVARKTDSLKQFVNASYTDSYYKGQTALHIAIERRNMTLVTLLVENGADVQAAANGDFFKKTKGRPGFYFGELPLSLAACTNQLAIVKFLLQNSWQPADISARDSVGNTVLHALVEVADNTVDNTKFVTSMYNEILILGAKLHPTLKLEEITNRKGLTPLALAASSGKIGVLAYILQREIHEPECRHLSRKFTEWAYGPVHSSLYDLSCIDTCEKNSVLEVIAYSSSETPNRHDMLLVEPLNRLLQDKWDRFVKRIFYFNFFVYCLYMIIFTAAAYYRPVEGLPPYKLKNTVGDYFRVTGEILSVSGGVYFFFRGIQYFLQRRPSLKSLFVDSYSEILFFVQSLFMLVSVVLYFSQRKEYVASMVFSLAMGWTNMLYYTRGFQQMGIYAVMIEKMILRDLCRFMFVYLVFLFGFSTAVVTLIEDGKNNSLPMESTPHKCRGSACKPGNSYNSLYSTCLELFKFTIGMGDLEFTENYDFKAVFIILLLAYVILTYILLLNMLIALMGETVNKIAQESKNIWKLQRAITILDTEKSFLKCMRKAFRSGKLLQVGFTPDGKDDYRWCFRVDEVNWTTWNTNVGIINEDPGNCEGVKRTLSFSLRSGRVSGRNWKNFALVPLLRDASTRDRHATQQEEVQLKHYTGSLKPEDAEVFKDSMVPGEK

| SMILES | Ki (vanilloid receptor (VR1); [5]) [nM] | melting point [°C] | Ki [1, 6] [nM] | IC50 (VR1/TRPV1 receptor; Table 2) [nM] | also measured |
| --- | --- | --- | --- | --- | --- |
| C[C@H](C(=O)NCc1ccc(C(F)(F)F)nc1N1CCCCC1)c1ccc(NS(C)(=O)=O)c(F)c1 [Example 10, (S)-2-(3-fluoro-4-(methylsulfonamido)phenyl)-N-((2-(piperidin-1-yl)-6-(trifluoromethyl)pyridin-3-yl)methyl)propanamide] | 0.3 | 75 to 79 | 1.1 | 64 |  |
| Cc1nc(C(F)(F)F)ccc1CNC(=O)C(C)c1ccc(NS(C)(=O)=O)c(F)c1 (stereo not shown) [Example 1, 2-(3-fluoro-4-(methylsulfonamido)phenyl)-N-((2-methyl-6-(trifluoromethyl)pyridin-3-yl)methyl)propanamide] | 387 | 149 to 152 | 684 |  |  |
| CC(C(=O)NCc1ccc(C(F)(F)F)cc1N1CCCCC1)c1ccc(NS(C)(=O)=O)c(F)c1 (stereo not shown) [Example 3] | 1.7 | 126 to 127 | 2.6 | 135 |  |
| CC(C(=O)NCc1ccc(C(C)(C)C)cc1OCC(C)(C)C)c1ccc(NS(C)(=O)=O)c(F)c1 (stereo not shown) [Example 152, N-[4-tert-butyl-2-(2,2-dimethyl-propoxy)-benzyl]-2-(3-fluoro-4-methylsulfonamido-phenyl)-propionamide] |  |  |  |  | inhibition at 10 µM ([2]; @ 10 μM): 63%; inhibition in vivo at 0.3 mg/kg ([3]; 0.3 mg/kg body weight po): 33%; Ki (vanilloid receptor (VR1); [7]): 3.8 nM; Ki [1, 8]: 2.2 nM |
| CC(C(=O)NCc1ccc(C(C)(C)C)cc1OCC(C)(C)C)c1ccc(NS(C)(=O)=O)c(F)c1 (stereo not shown) [Compound 152] |  |  |  |  | inhibition at 1 µM ([2]; @ 1 μM): 45%; inhibition in vivo at 1 mg/kg ([3]; 1 mg/kg body weight po): 24% |
| CC(C(=O)NCc1ccc(C(F)(F)F)nc1N1CCCCC1)c1ccc(NS(C)(=O)=O)c(F)c1 (stereo not shown) [Example 2, 2-(3-fluoro-4-(methylsulfonamido)phenyl)-N-((2-(piperidin-1-yl)-6-(trifluoromethyl)pyridin-3-yl)methyl)propanamide] | 0.4 | 75 to 79 | 3.5 | 218 |  |
| CC(C(=O)NCc1ccc(C(F)(F)F)nc1N1CCC(Cc2ccccc2)CC1)c1ccc(NS(C)(=O)=O)c(F)c1 (stereo not shown) [Example 104, N-(4-benzyl-6′-trifluoromethyl-3,4,5,6-tetrahydro-2H-[1,2′]bipyridinyl-3′-ylmethyl)-2-(3-fluoro-4-methylsulfonamido-phenyl)-propionamide] |  |  |  |  | inhibition Bennet model (n = 10) [4]: 0.0001 po 20%; Ki (vanilloid receptor (VR1); [7]): 0.2 nM; Ki [1, 8]: 0.2 nM; IC50 (VR1/TRPV1 receptor; table 4): 40 nM |
